{
  "source": "patent US20260021064A1",
  "about": "“ACETAMINOPHEN AND NAPROXEN FOR TREATING PAIN” (Kenvue Brands LLC, priority 2022, published 2026)",
  "key": {"[1]": {"tested_on": "pain after surgical extraction of four third molars", "settings": "single oral dose; up to 12 hours; scale poor (0) to excellent (4)", "quoted_text": "Participant's Global Evaluation of Study Medication OR Overall Impression of Study Medication According to Participant's Global Evaluation [Time Frame: Up to 12 hours]. Participants were asked to rate their overall impression of the study medication using the following scale: poor (0), fair (1), good (2), very good (3), and excellent (4) where higher score represented better outcome.\nParticipant's Global Evaluation of Study Medication OR Overall Impression of Study Medication According to Participant's Global Evaluation: Participants were asked to rate their overall impression of the study medication using the following scale: poor (0), fair (1), good (2), very good (3), and excellent (4) where higher score represented better outcome"}, "[2]": {"tested_on": "pain after surgical extraction of four third molars", "settings": "for PID Score, Least Squares Mean (Standard Error): PI-NRS 0-10, difference from baseline", "protocol": "(§1) 1. Time-Weighted Sum of Pain Intensity Difference Score From Baseline (0 Hour) to 6 Hours (SPID 0-6) [Time Frame: Baseline (0 hour) up to 6 hours post-dose]. Time-weighted sum of the pain intensity difference (SPID) score was measured using a Pain Intensity-Numerical Rating Scale (PI-NRS) ranging from 0-10 (0=no pain, 10=very severe pain). The possible range of SPID for 0-6 hours was from −60 to 60. A higher value of SPID indicated greater pain relief. PID was the difference between baseline pain intensity and pain intensity at assessment. Time-weighted sum of the pain intensity difference scores were derived by first multiplying each PID score by the time from the previous time point and adding these time-weighted PID scores together over the intervals from 0 to 6 hours.\n2. Time-weighted Sum of Pain Intensity Difference Score From Baseline (0 Hour) to 12 Hours (SPID 0-12) [Time Frame: Baseline (0 hour) up to 12 hours post-dose]. Time-weighted sum of the pain intensity difference score was measured using a PI-NRS ranging from 0-10 (0=no pain, 10=very severe pain). The possible range of SPID for 0-12 hours was from-120 to 120. A higher value of SPID indicated greater pain relief. PID was the difference between baseline pain intensity and pain intensity at assessment (12 hours). Time-weighted sum of the pain intensity difference scores were derived by first multiplying each PID score by the time from the previous time point and adding these time-weighted PID scores together over the intervals from 0 to 12 hours.\n4. Time-Weighted Sum of Pain Intensity Difference Score From Baseline (0 Hour) to 8 Hours (SPID 0-8) [Time Frame: Baseline (0 hour) up to 8 hours post-dose]. Time-weighted sum of the pain intensity difference score was measured using a PI-NRS ranging from 0-10 (0=no pain, 10=very severe pain). The possible range of SPID for 0-8 hours was from −80 to 80. A higher value of SPID indicated greater pain relief. PID was the difference between baseline pain intensity and pain intensity at assessment (8 hours). Time-weighted sum of the pain intensity difference scores were derived by first multiplying each PID score by the time from the previous time point and adding these time-weighted PID scores together over the intervals from 0 to 8 hours.\n6. Pain Intensity Difference (PID) Scores at Individual Time Points [Time Frame: 0.25 hours, 0.5 hours, 0.75 hours, 1 hours, 1.25 hours, 1.5 hours, 2 hours, 3 hours, 4 hours, 5 hours, 6 hours, 7 hours, 8 hours, 9 hours, 10 hours, 11 hours, and 12 hours]. Pain Intensity was self-reported over 12 hours, using a pain rating of 0-10 on the PI-NRS, with score ranged from 0-10 (0=no pain; 10 =worst imaginable pain). Pain intensity differences were calculated with respect to baseline at each time point after study drug administration.\nas §1, with “Time-Weighted” for “1. Time-Weighted”, “0-6):” for “0-6) [Time Frame: Baseline (0 hour) up to 6 hours post-dose].”\nTime-weighted Sum of Pain Intensity Difference Score From Baseline (0 Hour) to 12 Hours (SPID 0-12): Time-weighted sum of the pain intensity difference score was measured using a PI-NRS ranging from 0-10 (0=no pain, 10=very severe pain). The possible range of SPID for 0-12 hours was from-120 to 120. A higher value of SPID indicated greater pain relief. PID was the difference between baseline pain intensity and pain intensity at assessment (12 hours)."}, "[3]": {"tested_on": "pain after surgical extraction of four third molars", "settings": "for PAR Score, Least Squares Mean (Standard Error): PR-NRS 0-10", "protocol": "(§2) 1. Time-Weighted Sum of Total Pain Relief Score From Baseline (0 Hour) to 6 Hours (TOTPAR 0-6) [Time Frame: Baseline (0 hour) up to 6 hours post-dose]. Time-weighted total pain relief (TOTPAR) was measured using a Pain Relief Numerical Rating Scale (PR-NRS) ranging from 0-10 (0=no relief, 10=complete relief). Total pain relief scores (TOTPARs) were calculated by multiplying the pain relief score at each postdose time point by the duration (in hours) since the preceding time point and then summing these values. The minimum value was 0, and the maximum value was 60. Higher scores was indicative of more pain relief.\nas §2, with “2.” for “1.”, “8” for “6”, “0-8)” for “0-6)”, “TOTPAR” for “Time-weighted total pain relief (TOTPAR)”, “PR-NRS” for “Pain Relief Numerical Rating Scale (PR-NRS)”, “80.” for “60.”\nas §2, with “3.” for “1.”, “12” for “6”, “0-12)” for “0-6)”, “TOTPAR” for “Time-weighted total pain relief (TOTPAR)”, “PR-NRS” for “Pain Relief Numerical Rating Scale (PR-NRS)”, “120.” for “60.”\n5. Pain Relief (PAR) Scores at Individual Timepoints [Time Frame: 0.25 hours, 0.5 hours, 0.75 hours, 1 hours, 1.25 hours, 1.5 hours, 2 hours, 3 hours, 4 hours, 5 hours, 6 hours, 7 hours, 8 hours, 9 hours, 10 hours, 11 hours, and 12 hours]. Participants answered a question at individual time points: “how much relief do you have from your starting pain?” on a 11-point PR-NRS. Scale ranged from 0=no relief to 10=complete relief. Higher score indicated improvement in pain.\nas §2, with “Time-Weighted” for “1. Time-Weighted”, “0-6):” for “0-6) [Time Frame: Baseline (0 hour) up to 6 hours post-dose].”\n(§3) Time-Weighted Sum of Total Pain Relief Score From baseline (0 Hour) to 8 Hours (TOTPAR 0-8): TOTPAR was measured using a PR-NRS ranging from 0-10 (0=no relief, 10=complete relief). Total pain relief scores (TOTPARs) were calculated by multiplying the pain relief score at each postdose time point by the duration (in hours) since the preceding time point and then summing these values. The minimum value was 0, and the maximum value was 80. Higher scores was indicative of more pain relief.\nas §3, with “Baseline” for “baseline”, “Hour” for “Hour)”, “12” for “8”, “0-12):” for “0-8):”, “120.” for “80.”\nPain Relief (PAR) Scores at Timepoints: Participants answered a question at individual time points: “how much relief do you have from your starting pain?” on a 11-point PR-NRS. Scale ranged from 0-no relief to 10-complete relief."}},
  "note": "Read-outs that look alike come from different tables or passages of the source.",
  "data": [
    {"smiles": "COc1ccc2cc([C@H](C)C(=O)O)ccc2c1", "note": "[Arm 2: Naproxen Sodium 440 mg, naproxen sodium]", "values": [
      {"measurement": "Participant's Global Evaluation of Study Medication, Least Squares Mean (Standard Error)", "setting": "[1]", "value": "2.7 (0.13)"},
      {"measurement": "PID Score, Least Squares Mean (Standard Error)", "setting": "[2]; 0.25 Hours post-dose", "value": "0.58 (0.15)"},
      {"measurement": "PID Score, Least Squares Mean (Standard Error)", "setting": "[2]; 0.5 Hours post-dose", "value": "1.82 (0.24)"},
      {"measurement": "PID Score, Least Squares Mean (Standard Error)", "setting": "[2]; 0.75 Hours post-dose", "value": "3.15 (0.27)"},
      {"measurement": "PID Score, Least Squares Mean (Standard Error)", "setting": "[2]; 1 Hours post-dose", "value": "3.97 (0.28)"},
      {"measurement": "PID Score, Least Squares Mean (Standard Error)", "setting": "[2]; 1.25 Hours post-dose", "value": "4.50 (0.28)"},
      {"measurement": "PID Score, Least Squares Mean (Standard Error)", "setting": "[2]; 1.5 Hours post-dose", "value": "4.72 (0.28)"},
      {"measurement": "PID Score, Least Squares Mean (Standard Error)", "setting": "[2]; 2 Hours post-dose", "value": "4.87 (0.28)"},
      {"measurement": "PID Score, Least Squares Mean (Standard Error)", "setting": "[2]; 3 Hours post-dose", "value": "4.75 (0.30)"},
      {"measurement": "PID Score, Least Squares Mean (Standard Error)", "setting": "[2]; 4 Hours post-dose", "value": "4.63 (0.31)"},
      {"measurement": "PID Score, Least Squares Mean (Standard Error)", "setting": "[2]; 5 Hours post-dose", "value": "4.59 (0.32)"},
      {"measurement": "PID Score, Least Squares Mean (Standard Error)", "setting": "[2]; 6 Hours post-dose", "value": "4.50 (0.32)"},
      {"measurement": "PID Score, Least Squares Mean (Standard Error)", "setting": "[2]; 7 Hours post-dose", "value": "4.36 (0.32)"},
      {"measurement": "PID Score, Least Squares Mean (Standard Error)", "setting": "[2]; 9 Hours post-dose", "value": "4.04 (0.33)"},
      {"measurement": "PID Score, Least Squares Mean (Standard Error)", "setting": "[2]; 10 Hours post-dose", "value": "4.01 (0.35)"},
      {"measurement": "PID Score, Least Squares Mean (Standard Error)", "setting": "[2]; 11 Hours post-dose", "value": "3.99 (0.35)"},
      {"measurement": "PID Score, Least Squares Mean (Standard Error)", "setting": "[2]; 12 Hours post-dose", "value": "3.91 (0.36)"},
      {"measurement": "Time-Weighted Sum of Pain Intensity Difference Score From Baseline (0 Hour) to 6 Hours (SPID 0-6), Least Squares Mean (Standard Error)", "setting": "[2]; single oral dose, possible range -60 to 60, higher = greater pain relief", "value": "25.59 (1.562)"},
      {"measurement": "Time-Weighted Sum of Pain Intensity Difference Score From Baseline (0 Hour) to 8 Hours (SPID 0-8), Least Squares Mean (Standard Error)", "setting": "[2]; single oral dose, possible range -80 to 80, higher = greater pain relief", "value": 34.11},
      {"measurement": "Time-weighted Sum of Pain Intensity Difference Score From Baseline (0 Hour) to 12 Hours (SPID 0-12), Least Squares Mean (Standard Error)", "setting": "[2]; single oral dose, possible range -120 to 120, higher = greater pain relief", "value": "50.07 (3.341)"},
      {"measurement": "PAR Score, Least Squares Mean (Standard Error)", "setting": "[3]; 0.25 Hours post-dose", "value": "0.80 (0.18)"},
      {"measurement": "PAR Score, Least Squares Mean (Standard Error)", "setting": "[3]; 0.5 Hours post-dose", "value": "2.27 (0.31)"},
      {"measurement": "PAR Score, Least Squares Mean (Standard Error)", "setting": "[3]; 0.75 Hours post-dose", "value": "4.11 (0.35)"},
      {"measurement": "PAR Score, Least Squares Mean (Standard Error)", "setting": "[3]; 1 Hours post-dose", "value": "5.29 (0.35)"},
      {"measurement": "PAR Score, Least Squares Mean (Standard Error)", "setting": "[3]; 1.25 Hours post-dose", "value": "5.99 (0.35)"},
      {"measurement": "PAR Score, Least Squares Mean (Standard Error)", "setting": "[3]; 1.5 Hours post-dose", "value": "6.36 (0.34)"},
      {"measurement": "PAR Score, Least Squares Mean (Standard Error)", "setting": "[3]; 2 Hours post-dose", "value": "6.62 (0.34)"},
      {"measurement": "PAR Score, Least Squares Mean (Standard Error)", "setting": "[3]; 3 Hours post-dose", "value": "6.52 (0.35)"},
      {"measurement": "PAR Score, Least Squares Mean (Standard Error)", "setting": "[3]; 4 Hours post-dose", "value": "1.46 (0.36)"},
      {"measurement": "PAR Score, Least Squares Mean (Standard Error)", "setting": "[3]; 5 Hours post-dose", "value": "6.45 (0.37)"},
      {"measurement": "PAR Score, Least Squares Mean (Standard Error)", "setting": "[3]; 6 Hours post-dose", "value": "6.26 (0.38)"},
      {"measurement": "PAR Score, Least Squares Mean (Standard Error)", "setting": "[3]; 8 Hours post-dose", "value": "5.95 (0.39)"},
      {"measurement": "PAR Score, Least Squares Mean (Standard Error)", "setting": "[3]; 9 Hours post-dose", "value": "5.73 (0.40)"},
      {"measurement": "PAR Score, Least Squares Mean (Standard Error)", "setting": "[3]; 10 Hours post-dose", "value": "5.71 (0.42)"},
      {"measurement": "PAR Score, Least Squares Mean (Standard Error)", "setting": "[3]; 11 Hours post-dose", "value": "5.71 (0.43)"},
      {"measurement": "PAR Score, Least Squares Mean (Standard Error)", "setting": "[3]; 12 Hours post-dose", "value": "5.62 (0.44)"},
      {"measurement": "Time-Weighted Sum of Total Pain Relief Score From Baseline (0 Hour) to 6 Hours (TOTPAR 0-6), Least Squares Mean (Standard Error)", "setting": "[3]; single oral dose, range 0 to 60, higher = more pain relief", "value": "35.20 (1.848)"},
      {"measurement": "Time-Weighted Sum of Total Pain Relief Score From baseline (0 Hour) to 8 Hours (TOTPAR 0-8), Least Squares Mean (Standard Error)", "setting": "[3]; single oral dose, range 0 to 80, higher = more pain relief", "value": 47.19},
      {"measurement": "Time-Weighted Sum of Total Pain Relief Score From Baseline (0 Hour to 12 Hours (TOTPAR 0-12), Least Squares Mean (Standard Error))", "setting": "[3]; single oral dose, range 0 to 120, higher = more pain relief", "value": 69.96}
    ]}
  ]
}
